In one assay the test system is Phytophthora infestans. Type of assay: in vivo. Conditions: young tomato plants, sprayed, active ingredient concentration 100 ppm, inoculated 1 day after treatment, evaluation 7 days after inoculation; 100% = no infection.
Another assay concerns Plasmopara viticola. In words: Plasmopara test (grapevine)/protective. It counts as in vivo. Conditions: young grapevine plants, sprayed, active ingredient concentration 10 ppm, evaluation 6 days after inoculation; 100% = no infection. On the procedure:
Plasmopara Test (Grapevine)/Protective
• Solvent: 24.5 parts by weight of acetone • 24.5 parts by weight of dimethylacetamide • Emulsifier: 1 part by weight of alkylaryl polyglycol ether
[To produce an appropriate active ingredient formulation, 1 part by weight of active ingredient is mixed with the specified amounts of solvent and emulsifier, and the concentrate is diluted with water to the desired concentration.
To test for protective efficacy, young plants are sprayed with the active ingredient formulation at the stated application rate. After the spray coating has dried on, the plants are inoculated with an aqueous spore suspension of Plasmopara viticola and then remain in an incubation cabin at approx. 20° C. and 100% relative air humidity for 1 day. Subsequently, the plants are placed in a greenhouse at approx. 21° C. and approx. 90% air humidity for 4 days. The plants are then moistened and placed in an incubation cabin for 1 day.
Evaluation follows 6 days after the inoculation. 0% means an efficacy which corresponds to that of the control, whereas an efficacy of 100% means that no infection is observed.
In this test, the following inventive compounds show, at an active ingredient concentration of 10 ppm, an efficacy of 70% or more: […]

Consider `CC(=NO)c1cccc(C2CC(c3csc(C4CCN(C(=O)Cn5nc(C(F)F)cc5C(F)F)CC4)n3)=NO2)c1` (mixture of isomers) [Example I-18], for which the Eff. % in the assay on Phytophthora infestans and with Plasmopara viticola was 100% each time.

As for `CON=Cc1cccc(C2CC(c3csc(C4CCN(C(=O)Nc5cc(Cl)ccc5C)CC4)n3)=NO2)c1` (mixture of isomers) [Example I-19], the Eff. % in the assay on Phytophthora infestans and in the assay with Plasmopara viticola was 100% each time.

Consider `CON=C(C)c1cccc(C2CC(c3csc(C4CCN(C(=O)Cn5nc(C(F)F)cc5C(F)F)CC4)n3)=NO2)c1` (mixture of isomers) [Example I-21], for which the Eff. % in the assay on Phytophthora infestans and with Plasmopara viticola was 100% in each case.

Take `O=C(Cn1nc(C(F)F)cc1C(F)F)N1CCC(c2nc(C3=NOC(c4cccc(C=NO)c4)C3)cs2)CC1` (mixture of isomers) [Example I-22]: the Eff. % with Phytophthora infestans and with Plasmopara viticola was 100% throughout.

Take `CON=C(C)c1cccc(C2CC(c3csc(C4CCN(C(=O)Nc5cc(Cl)ccc5C)CC4)n3)=NO2)c1` (mixture of isomers) [Example I-23]: the figures for the Eff. % in the assay on Phytophthora infestans and in the assay on Plasmopara viticola were 100% and 98%, respectively.

With `CCON=Cc1ccccc1C1CC(c2csc(C3CCN(C(=O)Cn4nc(C(F)F)cc4C(F)F)CC3)n2)=NO1` (mixture of isomers) [Example I-27], the figures for the Eff. % in the assay on Phytophthora infestans and in the assay with Plasmopara viticola were 100% and 99%, respectively.

On to `CON=C(C)c1ccccc1C1CC(c2csc(C3CCN(C(=O)Cn4nc(C(F)(F)F)cc4C)CC3)n2)=NO1` (mixture of isomers) [Example I-31], for which the Eff. % in the assay with Phytophthora infestans was found to be 100%; with Plasmopara viticola, 97%.

Turning to `CON=C(C)c1ccccc1C1CC(c2csc(C3CCN(C(=O)Cn4nc(C(F)F)cc4C(F)F)CC3)n2)=NO1` (mixture of isomers) [Example I-32], the values for the Eff. % in the assay with Phytophthora infestans and in the assay on Plasmopara viticola were 100% and 85%, respectively.

With `O=C(Cn1nc(C(F)F)cc1C(F)F)N1CCC(c2nc(C3=NOC(c4ccccc4C=NO)C3)cs2)CC1` (mixture of isomers) [Example I-35], the Eff. % was 95% in the assay on Phytophthora infestans and 100% with Plasmopara viticola.

In the case of `Cc1ccc(Cl)cc1NC(=O)N1CCC(c2nc(C3=NOC(c4ccccc4C=NO)C3)cs2)CC1` (mixture of isomers) [Example I-36], the Eff. % with Phytophthora infestans and in the assay on Plasmopara viticola was 100% throughout.

Regarding `CON=C(C)c1cccc(C2CC(c3csc(C4CCN(C(=O)Cn5nc(C(F)(F)F)cc5C)CC4)n3)=NO2)c1` (centres unmarked) [Example I-3], the Eff. % in the assay with Phytophthora infestans is 100%; in the assay on Plasmopara viticola, 97%.

As for `CC(=NO)c1cccc(C2CC(c3csc(C4CCN(C(=O)Cn5nc(C(F)(F)F)cc5C)CC4)n3)=NO2)c1` (centres unmarked) [Example I-7], the Eff. % in the assay with Phytophthora infestans and with Plasmopara viticola was 100% throughout.

Regarding `CON=Cc1ccccc1C1CC(c2csc(C3CCN(C(=O)Cn4nc(C(F)F)cc4C(F)F)CC3)n2)=NO1` (centres unmarked) [Example I-26, 2-{3-[2-(1-{[3,5-Bis(difluoromethyl)-1H-pyrazol-1-yl]acetyl}piperidin-4-yl)-1,3-thiazol-4-yl]-4,5-dihydro-1,2-oxazol-5-yl}benzaldehyde O-methyloxime], the Eff. % with Phytophthora infestans and in the assay with Plasmopara viticola was 100% throughout.

For the compound `CCON=Cc1ccccc1C1CC(c2csc(C3CCN(C(=O)Cn4nc(C(F)(F)F)cc4C)CC3)n2)=NO1` (centres unmarked) [Example I-29], the Eff. % with Phytophthora infestans was 100%; in the assay on Plasmopara viticola it was 90%.

In the case of `CON=Cc1ccccc1C1CC(c2csc(C3CCN(C(=O)Cn4nc(C(F)(F)F)cc4C)CC3)n2)=NO1` (centres unmarked) [Example I-34], the results for the Eff. % in the assay on Phytophthora infestans and in the assay with Plasmopara viticola were 100% and 87%, respectively.

On to `CON=Cc1ccccc1C1CC(c2csc(C3CCN(C(=O)Nc4cc(Cl)ccc4C)CC3)n2)=NO1` (centres unmarked) [Example I-41, N-(5-Chloro-2-methylphenyl)-4-[4-(5-{2-[(methoxyimino)methyl]phenyl}-4,5-dihydro-1,2-oxazol-3-yl)-1,3-thiazol-2-yl]piperidine-1-carboxamide], for which the Eff. % in the assay with Phytophthora infestans is given as 100%; in the assay with Plasmopara viticola, 81%.

For the compound `C#CCOCc1ccccc1C1CC(c2csc(C3CCN(C(=O)Cn4nc(C(F)(F)F)cc4C)CC3)n2)=NO1` (centres unmarked) [Example I-46], the Eff. % in the assay on Phytophthora infestans and in the assay with Plasmopara viticola was 94% each time.

On to `CC(=O)OCc1ccccc1C1CC(c2csc(C3CCN(C(=O)Cn4nc(C(F)(F)F)cc4C)CC3)n2)=NO1` (centres unmarked) [Example I-47], for which the Eff. % is recorded as 94% in the assay with Phytophthora infestans and 90% in the assay on Plasmopara viticola.

Turning to `C#CCOCc1ccccc1C1CC(c2csc(C3CCN(C(=O)Cn4nc(C(F)F)cc4C(F)F)CC3)n2)=NO1` (centres unmarked) [Example I-53], the Eff. % in the assay with Phytophthora infestans was 94%; in the assay with Plasmopara viticola it was 96%.

For `Cc1ccc(Cl)cc1NC(=O)N1CCC(c2nc(C3=NOC(c4c(Cl)cccc4OS(C)(=O)=O)C3)cs2)CC1` (centres unmarked) [Example I-54], the Eff. % in the assay with Phytophthora infestans is on record as 94%; with Plasmopara viticola, 100%.

On to `CC(=O)OCc1ccccc1C1CC(c2csc(C3CCN(C(=O)Cn4nc(C(F)F)cc4C(F)F)CC3)n2)=NO1` (centres unmarked) [Example I-55], for which the Eff. % with Phytophthora infestans turned out to be 94%; in the assay with Plasmopara viticola it was 92%.

In the case of `COCCS(=O)(=O)Cc1ccccc1C1CC(c2csc(C3CCN(C(=O)Cn4nc(C(F)F)cc4C(F)F)CC3)n2)=NO1` (centres unmarked) [Example I-57], the Eff. % is reported as 94% with Phytophthora infestans and 90% in the assay on Plasmopara viticola.

On to `N#CCOc1ccccc1C1CC(c2csc(C3CCN(C(=O)Cn4nc(C(F)F)cc4C(F)F)CC3)n2)=NO1` (centres unmarked) [Example I-63], for which the results for the Eff. % with Phytophthora infestans and in the assay with Plasmopara viticola were 94% and 100%, respectively.

As for `O=C(Cn1nc(C(F)F)cc1C(F)F)N1CCC(c2nc(C3=NOC(c4ccccc4OS(=O)(=O)C4CC4)C3)cs2)CC1` (centres unmarked) [Example I-64], the Eff. % with Phytophthora infestans and in the assay with Plasmopara viticola was 100% in each case.

`Cc1ccc(C)c(NC(=O)N2CCC(c3nc(C4=NOC(c5ccccc5OS(C)(=O)=O)C4)cs3)CC2)c1` (centres unmarked) [Example I-74]: the Eff. % in the assay with Phytophthora infestans and in the assay with Plasmopara viticola was 100% throughout.

On to `Cc1cc(C(F)F)nn1CC(=O)N1CCC(c2nc(C3=NOC(c4ccccc4OCC#N)C3)cs2)CC1` (centres unmarked) [Example I-76], for which the Eff. % came to 100% with Phytophthora infestans and 93% with Plasmopara viticola.

Consider `CCS(=O)(=O)Oc1cccc(C2CC(c3csc(C4CCN(C(=O)Cn5nc(C(F)F)cc5C(F)F)CC4)n3)=NO2)c1` (centres unmarked) [Example I-77], for which the results for the Eff. % in the assay with Phytophthora infestans and with Plasmopara viticola were 98% and 93%, respectively.

Regarding `Cc1cc(C(F)(F)F)nn1CC(=O)N1CCC(c2nc(C3=NOC(c4c(Cl)cccc4OCC#N)C3)cs2)CC1` (centres unmarked) [Example I-78], the Eff. % with Phytophthora infestans worked out at 80%; in the assay on Plasmopara viticola, 97%.

As to `N#CCOc1ccc(C2CC(c3csc(C4CCN(C(=O)Cn5nc(C(F)F)cc5C(F)F)CC4)n3)=NO2)cc1` (centres unmarked) [Example I-81], the Eff. % was determined as 100% with Phytophthora infestans and 99% with Plasmopara viticola.

For the compound `C/C=C/C(=O)Oc1ccccc1C1CC(c2csc(C3CCN(C(=O)Cn4nc(C(F)F)cc4C(F)F)CC3)n2)=NO1` (centres unmarked) [Example I-82], the Eff. % in the assay with Phytophthora infestans is 70%; in the assay on Plasmopara viticola, 94%.

On to `O=C(Cn1nc(C(F)F)cc1C(F)F)N1CCC(c2nc(C3=NOC(c4cccc(OS(=O)(=O)C5CC5)c4)C3)cs2)CC1` (centres unmarked) [Example I-83], for which the Eff. % in the assay on Phytophthora infestans turned out to be 98%; in the assay on Plasmopara viticola, 94%.

`O=C(Cn1nc(C(F)F)cc1C(F)F)N1CCC(c2nc(C3=NOC(c4cc(F)ccc4OS(=O)(=O)C4CC4)C3)cs2)CC1` (centres unmarked) [Example I-84]: the figures for the Eff. % with Phytophthora infestans and in the assay with Plasmopara viticola were 90% and 100%, respectively.

As for `CS(=O)(=O)Oc1c(F)cccc1C1CC(c2csc(C3CCN(C(=O)Cn4nc(C(F)F)cc4C(F)F)CC3)n2)=NO1` (centres unmarked) [Example I-85], the Eff. % in the assay on Phytophthora infestans is on record as 75%; with Plasmopara viticola, 100%.

In the case of `Cc1cc(C(F)(F)F)nn1CC(=O)N1CCC(c2nc(C3=NOC(c4c(F)cccc4OCC#N)C3)cs2)CC1` (centres unmarked) [Example I-86], the Eff. % was 75% in the assay on Phytophthora infestans and 99% with Plasmopara viticola.

Consider `N#CCCn1cccc1C1CC(c2csc(C3CCN(C(=O)Cn4nc(C(F)F)cc4C(F)F)CC3)n2)=NO1` (centres unmarked) [Example I-87], for which the values for the Eff. % with Phytophthora infestans and in the assay on Plasmopara viticola were 80% and 95%, respectively.

With `CS(=O)(=O)Oc1cccc(Cl)c1C1CC(c2csc(C3CCN(C(=O)Cn4nc(C(F)F)cc4C(F)F)CC3)n2)=NO1` (centres unmarked) [Example I-102], the figures for the Eff. % in the assay with Phytophthora infestans and with Plasmopara viticola were 75% and 100%, respectively.

`Cc1cc(C(F)(F)F)nn1CC(=O)N1CCC(c2nc(C3=NOC(c4c(Cl)cccc4OS(C)(=O)=O)C3)cs2)CC1` (centres unmarked) [Example I-103]: the Eff. % with Phytophthora infestans is reported as 80%; in the assay with Plasmopara viticola, 100%.

`O=CNc1ccccc1C1CC(c2csc(C3CCN(C(=O)Cn4nc(C(F)F)cc4C(F)F)CC3)n2)=NO1` (centres unmarked) [Example I-108]: the Eff. % in the assay with Phytophthora infestans was 100%; in the assay with Plasmopara viticola, 93%.

In the case of `CSCOc1ccccc1C1CC(c2csc(C3CCN(C(=O)Cn4nc(C(F)F)cc4C(F)F)CC3)n2)=NO1` (centres unmarked) [Example I-112], the Eff. % came to 94% in the assay on Phytophthora infestans and 100% in the assay on Plasmopara viticola.

Turning to `N#CCOc1cccc(F)c1C1CC(c2csc(C3CCN(C(=O)Cn4nc(C(F)F)cc4C(F)F)CC3)n2)=NO1` (centres unmarked) [Example I-113], the Eff. % in the assay with Phytophthora infestans was 85%; with Plasmopara viticola it was 100%.

(Values after patent US10499641B2 (priority 2010, dated 2019).)
